Data: patent publication US10618937B2, “Method of treating Alzheimer's disease” (INDUSTRY-ACADEMIC COOPERATION FOUNDATION GYEONGSANG …, priority 2016, dated 2020)

Columns and labels:
APP/PS1 model mice = assay: Western blot analysis of cortex and hippocampus of APP/PS1 model mice; assay type: in vivo
Protocol: Male C57BL/6J wild type mice and double transgenic B6.Cg-Tg (APPswe, PSENdE9) 85Dbo Mmjax (APP/PS1) AD-model mice were obtained from Jackson Laboratories (Bar Harbor, Me., USA). The brains of the double transfected mice express Swedish mutation-containing chimeric mouse-human amyloid precursor protein (Mo/HuAPP695swe) and mutant human presenilin 1 protein (PS1-dE9). The mice were fed with an unlimited supply of food and water at an animal breeding ground of a university at a temperature of 23° C., at the relative humidity of 60±10% and in the black and light cycle of 12 h/12 h. […] The maintenance and treatment for mice were performed according to the guidelines of the Animal Ethics Committee (IACUC) issued by Department of Biology, Division of Applied Life Science of Gyeongsang National University in Korea. Experiments according to the present disclosure were conducted according to the guidelines approved by the guidelines of the Animal Ethics Committee (IACUC) issued by Department of Biology, Division of Applied Life Science of Gyeongsang National University in Korea (approval ID: 125).
The novel peptide according to the present disclosure was dissolved in bi-deionized distilled water, and administered while being finally included in physiological saline. The novel peptide according to the present disclosure was intraperitoneal injection (IP) administered to APP/PS1 and wild-type (WT) mice in a dose of 5 mg/kg/day at an interval of 2.5 days for 30 days to 45 days. Wild-type mice and APP/PS1 transfected mice were treated with the same volume of physiological saline, and after behavioral analysis, the animal models were sacrificed for further biochemical and immunohistochemical analysis.
Protein concentrations were measured by using a BIORAD protein assay kit (BIORAD LABORATORIES, CA, USA). Equal amounts of protein (15 to 25 μg) were electrophoresed under the same experimental conditions using 4 to 12% BLOT™ minigel and MES SDS electrophoresis buffer (running buffer) 1×(NOVEX, LIFE TECHNOLOGIES, Kiryat Shmona, Israel), and a broad range prestained protein marker (GANGNAM STAIN™, Intron Biotechnology) was used as the control for the molecular size. To reduce nonspecific binding, the membranes used were blocked with 5% (w/v) skim milk and reacted with a primary antibody (a 1:1000 dilution) overnight at 4° C. After an appropriate reaction with a horseradish peroxidase (HRP)-binding secondary antibody, proteins were detected by using an ECL detection reagent (AMERSHAM PHARMECIA BIOTECH, Uppsala, Sweden) according to the manufacturer's instructions. The X-ray film was scanned and the optical density of the band was analyzed using a densitometry using a computer-based Sigma Gel program, version 1.0 (SPSS, Chicago, Ill., USA).
For use as the primary antibody, anti-amyloid β (Aβ), anti-APP, anti-AdipoR1 (Adiponectin receptor 1), anti-phospho-AMPK, anti-SNAP-25 (Synaptosomal-Associated Protein 25), anti-SAP-102, anti-Syanpatophysin, phospho-Tau (Ser 413), anti-p-mTOR, anti-p-ULK1, and anti-β-actin were used.

[1] = tested on: primary hippocampus neurons; assay: In vitro electrophysiological analysis (AMPAR-mediated mEPSCs); assay type: cell-based, Sprague-Dawley rats; conditions: compared to the Aβ group, various concentrations
Protocol: Primary hippocampus neurons isolated from E19 Sprague-Dawley rats were cultured to a density of 150 cells/mm^2. AMPA receptor (AMPAR)-mediated miniature excitatory postsynaptic currents (mEPSCs) were recorded by using conventional whole-cell techniques. When primary hippocampus neurons were filled with an internal solution, the electrode resistance was varied from 3 MΩ to 5 MΩ.
The inventors of the present specification performed current measurements by using an Axopatch 200A patch-clamp amplifier (Molecular Devices, Sunnyvale, Calif.).
The voltage of the membrane and the voltage of current, commands, and digitization were adjusted by using Digidata 1322A connected to Clampex 9.2 (Molecular Devices, Sunnyvale, Calif.) of the pClamp software package on an IBM-compatible computer. The inventors of the present specification analyzed data by using Clampfit (Molecular Devices, Sunnyvale, Calif.) and Prism 4.0 (GraphPad, San Diego, Calif.). The current was low-pass filtered at 2 kHz by using an amplifiers four-pole Bessel filter. […]
The cumulative probability curve of mEPSCs was calculated by using Clampfit 9.0 software and Prism 4.0 (GraphPad, San Diego, Calif.). […]

[2] = hippocampus of APP/PS1 mice, 9 months and 12 months
[3] = hippocampus, 9 months and 12 months
[4] = hippocampus, 9 months and 12 months after treatment

“RGPCG (adiponectin receptor-activating peptide) [5AA1]” was tested, and the “expression of p-ULK1 protein” value (APP/PS1 model mice; APP/PS1 mice) was “suppression of the expression”, the “expression of p-mTOR protein” value (APP/PS1 model mice; APP/PS1 mice) was “suppression of the expression” and the “APP in the cortex” value (APP/PS1 model mice; cortex of APP/PS1 mice) was “statistically significantly reduced”. For the same substance, the “amyloid-β oligomer (Aβ oligomer) in the cortex” value (APP/PS1 model mice; cortex of APP/PS1 mice) was “statistically significantly reduced”, the “expression level of p-Tau (Ser404)” value (APP/PS1 model mice; hippocampus of APP/PS1 mice) was “remarkably decreased levels” and the “expression level of p-Tau (Ser413)” value (APP/PS1 model mice; hippocampus of APP/PS1 mice) was “remarkably decreased levels”. The “expression level of AdipoR1” value (APP/PS1 model mice; [2]) was “remarkably increased levels”, the “expression level of SIRT-1” value (APP/PS1 model mice; [2]) was “remarkably increased levels” and the “expression level of pAMPK” value (APP/PS1 model mice; [2]) was “remarkably increased levels”. For the same substance, the “expression level of AAP in the hippocampus” value (APP/PS1 model mice; [3]) was “decreased”, the “expression level of Aβ in the hippocampus” value (APP/PS1 model mice; [3]) was “decreased” and the “expression level of SAP-102” value (APP/PS1 model mice; [4]) was “remarkably increased levels”. For the same substance, the “expression level of SNAP-25” value (APP/PS1 model mice; [4]) was “remarkably increased levels”, the “expression level of Synaptophysin” value (APP/PS1 model mice; [4]) was “remarkably increased levels” and the mEPSC frequency [1] was “statistically significantly increased”.
